Laboratory results from patent publication US5710150A, “Benzazepine derivative, pharmaceutical composition thereof, and intermediate thereof” (Yamanouchi Pharmaceutical Co., Ltd., priority 1993, dated 1998).

Tests used:
V1 = V1 antagonism in conscious rats (oral administration), AVP-induced diastolic blood pressure increase; type: in vivo, male Wister rats; settings: 1 mg/kg oral, 30 minutes to 6 hours after administration, AVP 30 mU/kg i.v.
[1] = target: T1, arginine vasopressin V1 receptor (Rattus norvegicus, UniProt P30560); assay: V1 receptor binding assay ([3H]-Arg-vasopressin, rat liver membrane); settings: for antagonism on V1 receptor (in words): compared with OPC-31260 and OPC-21268; for Ki: rat liver membrane, [3H]-Arg-vasopressin 2 nM, 30° C., 30 minutes, pH 8.0, read-out: Binding activity on arginine vasopressin V1 receptor (pKi) (converted)
T1 construct: A rat liver membrane sample was prepared; from tissue; host or cells: rat liver membranes
T1 sequence (P30560 whole entry): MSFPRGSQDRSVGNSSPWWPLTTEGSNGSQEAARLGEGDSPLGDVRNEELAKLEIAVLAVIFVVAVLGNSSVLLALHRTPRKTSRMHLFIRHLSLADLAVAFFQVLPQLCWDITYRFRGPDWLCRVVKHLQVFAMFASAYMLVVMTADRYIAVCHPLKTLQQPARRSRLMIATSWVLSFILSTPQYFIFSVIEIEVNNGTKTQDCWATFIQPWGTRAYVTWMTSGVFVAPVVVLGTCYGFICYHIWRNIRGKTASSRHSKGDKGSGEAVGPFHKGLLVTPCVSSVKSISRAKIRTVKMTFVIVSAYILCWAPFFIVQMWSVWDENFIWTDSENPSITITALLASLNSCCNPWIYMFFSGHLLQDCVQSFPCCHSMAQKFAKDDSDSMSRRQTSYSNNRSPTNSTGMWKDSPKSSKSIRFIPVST
Description: (1) V1 receptor binding assay
A rat liver membrane sample was prepared in accordance with the method of Nakamura et al. (J. Biol. Chem., 258, 9283 (1983)), and [^3 H]-Arg-vasopressin (2 nM, specific activity=75.8 Ci/mmol), 70 μg of the membrane sample and each drug to be tested (10^-8 to 10^-4 M) were incubated at 30° C. for 30 minutes in 250 μl of 100 mM Tris-HCl buffer (pH=8.0) containing 5 mM of magnesium chloride, 1 mM of ethylenediaminetetraacetic acid (EDTA) and 0.1% of bovine serum albumin (BSA). Thereafter, the incubation solution was sucked off using a cell harvester and free ligand and excess buffer were removed by passing the reaction mixture through a glass filter (GF/B), thereby trapping receptor-bound labeled ligand on the glass filter. The glass filter was taken out, thoroughly dried and then mixed with a liquid scintillation cocktail, and the amount of the membrane-bound [^3 H]-vasopressin was measured using a liquid scintillation counter to calculate the inhibition ratio by the following formula. [formula] C1 : amount of [^3 H]-vasopressin bound to the membrane in the coexistence of known amount of each drug to be tested and [^3 H]-vasopressin
C0 : amount of [^3 H]-vasopressin bound to the membrane when the drug to be tested was not added
B1 : amount of [^3 H]-vasopressin bound to the membrane in the presence of excess vasopressin (10^-6 M)
[formula] [L]: concentration of radioactive ligand KD: dissociation constant calculated from Scatchard plot
Negative logarithm of the thus calculated Ki value was used as pKi value.

[2] = target: arginine vasopressin V2 receptor (Oryctolagus cuniculus, UniProt G1TA00); assay: V2 receptor binding assay ([3H]-Arg-vasopressin, rabbit renal medulla membrane); settings: for antagonism on V2 receptor (in words): compared with OPC-31260 and OPC-21268; for Binding activity on arginine vasopressin V2 receptor (pKi): rabbit renal medulla membrane, [3H]-Arg-vasopressin 2 nM
Chain of arginine vasopressin V2 receptor (G1TA00 78-446): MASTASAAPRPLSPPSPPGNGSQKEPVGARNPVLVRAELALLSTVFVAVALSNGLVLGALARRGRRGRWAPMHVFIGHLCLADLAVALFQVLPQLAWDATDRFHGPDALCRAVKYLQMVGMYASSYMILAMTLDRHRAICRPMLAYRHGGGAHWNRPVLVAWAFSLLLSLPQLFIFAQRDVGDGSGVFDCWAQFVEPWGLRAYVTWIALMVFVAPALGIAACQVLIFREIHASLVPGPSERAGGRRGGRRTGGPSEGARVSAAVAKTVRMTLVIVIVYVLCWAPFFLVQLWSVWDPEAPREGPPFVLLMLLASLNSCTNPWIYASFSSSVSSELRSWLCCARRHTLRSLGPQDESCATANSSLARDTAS

[3] = Water diuresis action in conscious rats (oral administration); type: in vivo, male Wister rats; settings: 3 mg/kg oral
Description: Each compound to be tested was suspended in 0.5% methylcellulose solution and orally administered in a dose of 3 mg/kg to male Wister rats (body weight, 270 to 300 g) which have been subjected to fasting with no water for 16 to 20 hours. Using a metabolic cage, urine samples were collected just after the administration of each test sample until 4 hours thereafter to measure the amount of urine.

CN1CCCN(C(=O)/C=C2/c3ccccc3N(C(=O)c3ccc(NC(=O)c4ccccc4-c4ccccc4)cc3)CCC2(F)F)CC1.Cl [Example 24, (Z)-4'-[[4,4-difluoro-5-[[(4-methylhexahydro-1,4-diazepin-1-yl)carbonyl]methylene]-2,3,4,5-tetrahydro-1H-1-benzazepin-1-yl]carbonyl]-2-phenylbenzanilide hydrochloride]
Pressure increment by AVP (before compound = 100%) (V1): ≤ 50% | antagonism on V1 receptor (in words) [1]: excellent antagonisms on both V1 and V2 receptors | Ki [1]: 0.0316 nM | antagonism on V2 receptor (in words) [2]: excellent antagonisms on both V1 and V2 receptors | Binding activity on arginine vasopressin V2 receptor (pKi) [2]: 9.26

Cc1ccccc1C(=O)Nc1ccc(C(=O)N2CCCC(N(C)C)c3ccccc32)cc1 (stereo not drawn) [Comparative compound (1), OPC-31260]
amount of urine compared with solvent-administered group, 2 to 4 hours (in words) ([3]; 2 hours to 4 hours after administration): almost the same as that in the solvent-administered group | amount of urine relative to solvent-administered group, 0 to 2 hours ([3]; just after administration to 2 hours later): 11 times

CN1CCN(C(=O)/C=C2/c3ccccc3N(C(=O)c3ccc(NC(=O)c4ccccc4-c4ccccc4)cc3)CCC2(F)F)CC1.Cl [Example 11, (Z)-4'-[[4,4-difluoro-5-(4-methyl-1-piperazinyl)carbonylmethylene-2,3,4,5-tetrahydro-1H-1-benzazepin-1-yl]carbonyl]-2-phenylbenzanilide hydrochloride]
Pressure increment by AVP (before compound = 100%) (V1): ≤ 50% | antagonism on V1 receptor (in words) [1]: excellent antagonisms on both V1 and V2 receptors | Ki [1]: 1.29 nM | antagonism on V2 receptor (in words) [2]: excellent antagonisms on both V1 and V2 receptors | Binding activity on arginine vasopressin V2 receptor (pKi) [2]: 9.06
